How the values were obtained:
actin polymerisation = assay: Cellular actin polymerisation test with GST-WH2/A beads in cell extracts; type: biochemical, human
Description: The GST-WH2/A protein was absorbed onto 500 nm latex beads (Polyscience Inc., 400 Valley Road, Warrington Pa., USA) following the manufacturers' instructions.
Moreover, the components recruited onto the surface of the beads, are targets for tyrosine kinase signalling pathways. Thanks to this in vitro system, it is now possible to study the conditions necessary for actin polymerisation in cells, a process which up to now has not been accessible to direct experimental manipulation.
The cellular actin polymerisation test of the invention has all these characteristics. Beads measuring 200–500 nm can be produced by absorbing purified GST-WH2/A recombinant protein on their surface. […] The beads are then added to extracts prepared from supernatants of lysed cells in culture. The volume of extract necessary for an experiment is of the order of a few microlitres, reducing the cost of the experiment. These extracts have the advantage that they can be produced in a large quantity and stored for a long period, at −80° C. Before the addition of these beads, a fluorescent actin derivative (commercial actin-rhodamine) is added to the extract to make the actin polymerisation visible by epifluorescence microscopy. The actin polymerisation is observed 15 min after the addition of the beads, resulting in an accumulation of fluorescent actin around the beads. […]

actin cytoskeleton = conditions: after some years of use; cited from earlier work
[1] = test system: actin polymerisation on the surface of GST-WA particles; assay: Inhibition of actin polymerisation induced by GST-WA protein on particles in HeLa extracts; type: biochemical, human
Description: Inhibition of actin polymerisation induced by GST-WA protein: 10 μm polystyrene particles (Polysciences inc.) are covered to saturation with GST-WA protein according to the manufacturer's protocol. The particles are resuspended to 1% solid in PBS (Phosphate Buffer Saline) and stored on ice. To test the independence of the actin polymerisation mechanism induced by GST-WA we prepared three solutions. Each sample contained 15 μl of HeLa extracts (supplemented with ATP, creatine phosphate and actin marked with rhodamine), 0.5 μl of GST-WA particles and 1.5 μl of PBS (A), or 1.5 μl of GST-WA protein at 1 mg/ml (B) or 1.5 μl of GST-PRO protein (PRO corresponding to the fragment delimited by the amino acids situated at positions 235 to 584 of the ActA protein of Listeria monocytogenes) at 1 mg/ml (C). 6 μl of the final mixture of these three solutions were sealed between slide and coverglass. We observed fluorescence (rhodamine actin) around the particles for thirty minutes and measured the intensity of fluorescence on a population of forty beads using a microscope (Leica) and a linear digital camera (Micromax Princeton instrument). The average intensity M (arbitrary unit) was 95,000±13,000 for sample A (positive control). For sample B, M=0±1000, the actin polymerisation on the surface of the particles was inhibited by the addition of GST-WA in solution. […]

In the case of `C=C1[C@@H](C)[C@H]2[C@H](Cc3ccccc3)NC(=O)[C@]23[C@H](OC(C)=O)/C=C/[C@@](C)(O)C(=O)[C@@H](C)C/C=C/[C@H]3[C@@H]1O` [cytochalasin D], the “sensitivity of the screening test to known medicaments inhibiting actin polymerisation” value (actin polymerisation) is reported as “sensitive”.

In the case of `CCCC(CCC)C(=O)O` [valproic acid], the “teratogenic properties due to secondary effects on the actin cytoskeleton” value (actin cytoskeleton) is listed as “teratogenic properties”.

In the case of latrunculin, the “sensitivity of the screening test to known medicaments inhibiting actin polymerisation” value (actin polymerisation) is reported as “sensitive”.

B1: GST-WA: recombinant fusion of GST, WH2/A domain of human WASP (positions 404-502, SEQ ID NO: 4) and myc9E10 epitope (protein)
chain: PSSGNGPAPPPLPPALVPAGGLAPGGGRGALLDQIRQGIQLNKTPGAPESSALQPPPQSSEGLVGALMHVMQKRSRAIHSSDEGEDQAGDEDEDDEWDDEQKLISEEDL
modifications: left off: a dimerising Fc or GST
With B1 the “average intensity M of fluorescence (rhodamine actin) around the particles” value ([1]; 1.5 μl protein at 1 mg/ml added to 15 μl HeLa extracts + 0.5 μl GST-WA particles (10 μm polystyrene), thirty minutes, forty beads, PBS control (sample A) 95,000±13,000) was 0±1000 arbitrary unit and the “actin polymerisation on the surface of the particles after addition of the protein in solution” value ([1]; protein at 1 mg/ml in solution, HeLa extracts, GST-WA particles) was “inhibited”.

Source: patent US7063829B2, “Wasp family protein fragments, and use thereof” (Centre National de la Recherche Scientifique, priority 1999, dated 2006)
